For 26 compounds, inhibition of growth and Observed efficacy results are on record in patent US10759767B2 (priority 2012, dated 2020).

Assay type in all cases: cell-based
For one assay, the system named is Leptosphaeria nodorum. Kind of assay: Microtest: activity against wheat leaf spots caused by Leptosphaeria nodorum (Leptno).
The test system of a further assay is Alternaria solani. Kind of assay: Microtest: activity against early blight caused by Alternaria solani (Alteso).
Another assay relates to Septoria tritici. Nature of the assay: Microtest: activity against leaf blotch on wheat caused by Septoria tritici (Septtr). To be noted: solo product.
The test system of another assay is Botrytis cinerea. Kind of assay: Microtest: activity against the grey mold Botrytis cinerea (Botrci).
The test system of a further assay is Phytophthora infestans. Kind of assay: microbe, parasite or virus in culture. The conditions noted are these: for Observed efficacy: solo product.
The test system of the next assay is Pyricularia oryzae. Kind of assay: microbe, parasite or virus in culture. The conditions noted are these: for Observed efficacy: solo product.
Setting [1] is: second Septtr microtest, 0.016 ppm.
The mark [2] stands for this setting: second Septtr microtest, 16 ppm.
[3] abbreviates: Phytophthora infestans, 168 h, read-out: Observed efficacy.
Setting [4] is: second Septtr microtest, 63 ppm.

For `CCOC(=O)C1CC(=O)C(=C(O)C2CC2)C(=O)C1` (centres unmarked) [II-3a, trinexapac-ethyl, reference compound], the inhibition of growth at 63 ppm with Leptosphaeria nodorum (Parastagonospora nodorum, 168 h, solo 63 ppm, read-out: Observed efficacy) was found to be 17%. Moreover, the Observed efficacy with Alternaria solani (solo 4 ppm) came out at 12; in the assay on Alternaria solani (solo 16 ppm), 27; in the assay with Septoria tritici (second Septtr microtest, 4 ppm) it was 13%.
Turning to `Fc1ccc([C@]2(Cn3cncn3)O[C@H]2c2ccccc2Cl)cc1` [Epoxiconazol], the Observed efficacy in the assay with Botrytis cinerea (solo 0.016 ppm) worked out at 11; with Alternaria solani (solo 0.004 ppm), 5; with Alternaria solani (solo 0.016 ppm) it was 8; in the assay on Septoria tritici (setting [1]), 16%; in the assay with Phytophthora infestans (4 ppm), 27.
As to `Cc1ccc(C(C)NC(=O)[C@@H](NC(=O)OC(C)C)C(C)C)cc1` (some centres unmarked) [II-51, iprovalicarb, reference compound], the Observed efficacy stood at 2 in the assay with Botrytis cinerea (solo 4 ppm); 3 in the assay on Botrytis cinerea (solo 16 ppm); 6 in the assay on Botrytis cinerea (solo 63 ppm); 19 with Leptosphaeria nodorum (solo 16 ppm); 1 in the assay with Alternaria solani (solo 4 ppm); 2 in the assay on Alternaria solani (solo 16 ppm). In the assay on Alternaria solani (solo 63 ppm), this compound gave an Observed efficacy of 1.
Take `N#Cc1c[nH]cc1-c1cccc2c1OC(F)(F)O2` [II-34, fludioxonil, reference compound]: the Observed efficacy was 13% in the assay with Alternaria solani (solo product, 0.016 ppm) and 0% with Phytophthora infestans (1 ppm).
As for `Cn1cc(C(=O)Nc2ccc(F)cc2-c2ccc(Cl)c(Cl)c2)c(C(F)F)n1` [II-6, bixafen, reference compound], the Observed efficacy stood at 8 with Botrytis cinerea (solo 0.016 ppm), 5 in the assay with Alternaria solani (solo 0.001 ppm), 38 in the assay on Alternaria solani (solo 0.004 ppm) and 25 in the assay with Phytophthora infestans (1 ppm).
In the case of `CC1COC(Cn2cncn2)(c2ccc(Oc3ccc(Cl)cc3)cc2Cl)O1` (centres unmarked) [Difenoconazol], the Observed efficacy in the assay with Leptosphaeria nodorum (solo 0.016 ppm) is 29; in the assay with Alternaria solani (solo 0.004 ppm) it was 5; in the assay with Alternaria solani (solo 0.016 ppm), 5; in the assay with Septoria tritici (setting [1]) it was 26%; in the assay with Phytophthora infestans (4 ppm), 30.
With `CC(C)C1C2CCC1c1c(NC(=O)c3cn(C)nc3C(F)F)cccc12` (centres unmarked) [II-50, isopyrazam, reference compound], the Observed efficacy in the assay with Botrytis cinerea (solo 0.016 ppm) was 6; with Alternaria solani (solo 0.016 ppm), 15.
`CO/N=C(/C1=NOCCO1)c1ccccc1Oc1ncnc(Oc2ccccc2Cl)c1F` [II-37, fluoxastrobin, reference compound] yielded an Observed efficacy in the assay on Alternaria solani (solo 0.016 ppm) of 11.
Take `COC(=O)Nc1nc2ccccc2[nH]1` [II-8, carbendazim, reference compound]: the Observed efficacy is given as 7 in the assay on Alternaria solani (solo 4 ppm), 10 in the assay with Alternaria solani (solo 16 ppm), 34 in the assay on Alternaria solani (solo 63 ppm) and 16% in the assay on Septoria tritici (setting [2]). Besides, the inhibition of growth at 4 ppm in the assay with Phytophthora infestans (setting [3]) turned out to be 24%.
As for `CC1(C)CCC(Cc2ccc(Cl)cc2)C1(O)Cn1cncn1` (centres unmarked) [Metconazol], the figures for the Observed efficacy in the assay with Alternaria solani (solo 0.016 ppm) and in the assay with Septoria tritici (setting [1]) were 17 and 24%, respectively.
On to `N#Cc1c(Cl)c(Cl)c(Cl)c(C#N)c1Cl` [II-11, chlorothalonil, reference compound], for which the Observed efficacy with Leptosphaeria nodorum (solo 1 ppm) was 28.
Turning to `CCCCCCCCc1c(CC)nc2ncnn2c1N` [II-1, ametoctradin, reference compound], the Observed efficacy with Botrytis cinerea (solo 16 ppm) came to 3; with Botrytis cinerea (solo 63 ppm), 4; in the assay with Alternaria solani (solo 4 ppm), 5; in the assay with Alternaria solani (solo 16 ppm), 2; in the assay on Alternaria solani (solo 63 ppm), 6.
Take `O=C(Nc1ccccc1-c1ccc(Cl)cc1)c1cccnc1Cl` [II-7, boscalid, reference compound]: the values for the Observed efficacy in the assay on Leptosphaeria nodorum (solo 4 ppm), in the assay on Alternaria solani (solo 0.001 ppm) and with Alternaria solani (solo 0.004 ppm) were 23, 5 and 6, respectively.
As to `Cc1ccc(-c2c(Cl)nc(C#N)n2S(=O)(=O)N(C)C)cc1` [II-12, cyazofamid, reference compound], the Observed efficacy in the assay with Alternaria solani (solo 4 ppm) turned out to be 14; in the assay on Alternaria solani (solo 16 ppm), 35; with Septoria tritici (setting [2]), 40%.
With `CC(C)(C)C(O)(CCc1ccc(Cl)cc1)Cn1cncn1` (centres unmarked) [Tebuconazol], the values for the Observed efficacy in the assay with Botrytis cinerea (solo 0.016 ppm), in the assay with Alternaria solani (solo 0.016 ppm) and in the assay on Phytophthora infestans (1 ppm) were 9, 8 and 25, respectively.
As for `CCC(=O)C1=C([O-])CC(C(=O)[O-])CC1=O.[Ca+2]` (centres unmarked) [Prohexadion-Ca], the Observed efficacy in the assay with Botrytis cinerea (solo 4 ppm) was 10; in the assay with Botrytis cinerea (solo 16 ppm), 5; in the assay on Botrytis cinerea (solo 63 ppm) it was 4; in the assay on Leptosphaeria nodorum (solo 63 ppm), 23; with Alternaria solani (solo 4 ppm), 6; in the assay on Alternaria solani (solo 16 ppm) it was 2. For the same compound, the Observed efficacy in the assay with Alternaria solani (solo 63 ppm) was 2; with Septoria tritici (setting [4]), 15%.
Regarding `CO/C=C(/C(=O)OC)c1ccccc1Oc1cc(Oc2ccccc2C#N)ncn1` [II-3, azoxystrobin, reference compound], the Observed efficacy in the assay with Botrytis cinerea (solo 4 ppm) was 14; in the assay with Botrytis cinerea (solo 16 ppm), 23; in the assay on Alternaria solani (solo 0.004 ppm), 6; in the assay on Alternaria solani (solo 0.016 ppm), 14.
Take `CC1(C)CC/C(=C\c2ccc(Cl)cc2)C1(O)Cn1cncn1` (centres unmarked) [Triticonazol]: the Observed efficacy stood at 0% in the assay with Phytophthora infestans (16 ppm), 1% in the assay on Pyricularia oryzae (1 ppm) and 59% in the assay with Pyricularia oryzae (4 ppm).
For the compound `CCN(Cc1ccc(Cl)nc1)/C(=C/[N+](=O)[O-])NC` [Nitenpyram], the Observed efficacy is on record as 23 in the assay on Leptosphaeria nodorum (solo 63 ppm); 2 in the assay on Alternaria solani (solo 4 ppm); 2 in the assay with Alternaria solani (solo 16 ppm); 8 in the assay with Alternaria solani (solo 63 ppm); 10% in the assay with Septoria tritici (setting [4]).
Regarding `CN1COCN(Cc2cnc(Cl)s2)/C1=N\[N+](=O)[O-]` [Thiamethoxam], the Observed efficacy in the assay on Leptosphaeria nodorum (solo 1 ppm) is 22; with Leptosphaeria nodorum (solo 4 ppm), 51; in the assay with Alternaria solani (solo 1 ppm), 10; in the assay with Alternaria solani (solo 4 ppm), 51; in the assay on Septoria tritici (second Septtr microtest, 1 ppm), 57%.
As for `OC(Cc1ccccc1Cl)(Cn1nc[nH]c1=S)C1(Cl)CC1` (centres unmarked) [Prothioconazol], the Observed efficacy in the assay with Botrytis cinerea (solo 1 ppm) amounted to 36; with Botrytis cinerea (solo 4 ppm), 72; in the assay on Leptosphaeria nodorum (solo 1 ppm), 43; in the assay on Alternaria solani (solo 1 ppm), 66; in the assay with Septoria tritici (setting [1]) it was 17%.
`CON=C(C(=O)OC)c1ccccc1CON=C(C)c1cccc(C(F)(F)F)c1` [II-92, trifloxystrobin, reference compound]: the Observed efficacy is reported as 7 with Alternaria solani (solo 0.004 ppm) and 11 with Alternaria solani (solo 0.016 ppm). The inhibition of growth at 1 ppm in the assay on Phytophthora infestans (setting [3]) amounted to 37%.
Turning to `N#Cc1nn(-c2c(Cl)cc(C(F)(F)F)cc2Cl)c(N)c1[S+]([O-])C(F)(F)F` (centres unmarked) [II-20c, fipronil, reference compound], the Observed efficacy in the assay with Alternaria solani (solo 1 ppm) amounted to 6; in the assay with Alternaria solani (solo 4 ppm) it was 2.
For `COC(=O)N(OC)c1ccccc1COc1ccn(-c2ccc(Cl)cc2)n1` [II-66, pyraclostrobin, reference compound], the inhibition of growth at 0.016 ppm was determined as 24% in the assay on Leptosphaeria nodorum (Parastagonospora nodorum, 168 h, solo 0.016 ppm, read-out: Observed efficacy) and 18% in the assay with Alternaria solani (Alternaria solani, 168 h, solo 0.016 ppm, read-out: Observed efficacy). Moreover, the Observed efficacy with Alternaria solani (solo 0.004 ppm) is recorded as 8; in the assay on Septoria tritici (second Septtr microtest, 0.004 ppm) it was 37%; in the assay on Septoria tritici (0.001 ppm), 12; in the assay with Septoria tritici (0.004 ppm), 37. For the same compound, the inhibition of growth at 0.001 ppm in the assay with Pyricularia oryzae (Pyricularia oryzae, 168 h, read-out: Observed efficacy) worked out at 5%.
Take `Cn1cc(C(=O)Nc2ccccc2-c2cc(F)c(F)c(F)c2)c(C(F)F)n1` [II-42, fluxapyroxad, reference compound]: the Observed efficacy was determined as 4 in the assay on Alternaria solani (solo 0.001 ppm) and 4% in the assay on Alternaria solani (solo product, 0.001 ppm).
On to `C[N+]1(C)CCCCC1.[Cl-]` [Mepiquat-cl], for which the Observed efficacy with Botrytis cinerea (solo 16 ppm) was 11; in the assay on Leptosphaeria nodorum (solo 63 ppm) it was 28; in the assay with Alternaria solani (solo 16 ppm), 10; with Alternaria solani (solo 63 ppm), 16; in the assay with Septoria tritici (setting [4]), 16%.
